In patent publication US20060128810A1, “Remedies for allergic diseases” (Kyoto University, priority 2002, published 2006):

Assays:
[1] = test system: OVA-sensitized mouse asthma model; assay: OVA-sensitized mouse asthma model, number of inflammatory cells in BALF; format: in vivo, mouse (C57/BL6); conditions: subcutaneous; for neutrophil number in BALF: FIG. 2
From the text: An asthma reaction was induced using a wild-type mouse (C57/BL6) that had previously been sensitized with an antigen of OVA twice (day 0 and day 12) by inhalation sensitization at intervals of four days a total of three times (day 22, day 26, and day 30). Subsequently, the change in the number of inflammatory cells in BALF that was an indicator of an allergic reaction was examined.
That is, a compound having an agonistic activity to EP3 receptor is effective in therapy of an allergic disease such as asthma, and a selective agonistic compound to EP3 receptor can be expected to induce a more remarkable therapeutic effect.

[2] = test system: extracted lung of a sensitized wild-type mouse; assay: Histamine and LT release from extracted lung of sensitized wild-type mouse by in vitro antigen stimulation
Procedure: The inventors of the present invention have studied on involvement of EP3 receptor in allergy reactions using the method already reported in a literature (Science, 287, 2013-(2000)). Specifically, the asthma condition was induced by inhalation of ovalbumin (hereinafter, abbreviated as OVA) in an EP3 receptor-deficient mouse, and the lung condition was analyzed. […] In addition, the suppression of the amount of histamine released from the sensitized lung by the agonist for the EP3 receptor causes only improvement of the portion enhanced by indomethacin. […] The inventors of the present invention have analyzed an EP3 (one of the PGE2 receptor subtypes) gene-deficient mouse and have already elucidated that EP3 is involved in crisis of an allergic reaction from the results of significant increase in the amount of infiltrated eosinophilics in a bronchoalveolar lavage fluid (hereinafter, abbreviated as BALF), and more significant increase in the number of infiltrated cells into a lung tissue and in the amount of Th2 cytokine in the mouse. Furthermore, they have found out that the amount of a chemical mediator that is released by in vitro antigenic stimulation of the lung of a sensitized wild-type mouse is increased by indomethacin which is a PGH-producing enzyme (cyclooxygenase) inhibitor and is suppressed by an agonist for EP3 receptor. […]

[3] = 10 μg/kg twice a day, day 22 to day 33, FIG. 1
[4] = 10 μg/kg twice a day, day 22 to day 33

Row | SMILES | eosinophil number in BALF [1, 3] | neutrophil number in BALF [1, 4] | amount of LT released from the extracted lung [2] | amount of histamine released from the extracted lung [2] | eosinophil number in BALF ([1]; 200 μg/kg twice a day, FIG. 3)
1 | CCCCC[C@@H](/C=C/[C@H]1[C@H](OC)CC(=O)[C@@H]1C/C=C\CCCC(=O)O)OC [compound (I-1), 11α,15α-dimethoxy-9-oxoprosta-5Z,13E-dienoic acid] | decreased significantly | decreased significantly |  |  | 
2 | COc1ccc2c(c1)c(CC(=O)O)c(C)n2C(=O)c1ccc(Cl)cc1 [indomethacin] |  |  | increase | increase | 
3 | CCCCC(C)(C)[C@H](O)/C=C/[C@H]1[C@H](O)CC(=O)[C@@H]1C/C=C\CCCC(=O)O [dmPGE2, 16,16-dimethyl PGE2] | no significant effect | no significant effect |  |  | significant effect
